Experiments:
[1] = test system: Zymoseptoria tritici; experiment: Leaf blotch of wheat (SEPTTR) disease control on wheat seedlings; assay type: in vivo; parameters: key to SEPTTR 1DP, HV activity at 100 ppm (% control rating) / SEPTTR 3DC, HV activity at 100 ppm (% control rating) / SEPTTR disease control, 1DP / SEPTTR disease control, 3DC / SEPTTR 1DP disease control rating, HV activity / SEPTTR 3DC disease control rating, HV activity / SEPTTR 3DC, LV activity at 125.1 g/H (% Control rating) / SEPTTR 1DP, LV activity at 125.1 g/H (% Control rating) / SEPTTR 1DP disease control rating, LV activity at 125.1 g/H / SEPTTR 3DC disease control rating, LV activity at 125.1 g/H / SEPTTR 3DC disease control rating, HV activity at 100 ppm / SEPTTR 1DP disease control rating, HV activity at 100 ppm / HV activity at 100 ppm SEPTTR 3DC (disease control rating) / HV activity at 100 ppm SEPTTR 1DP (disease control rating) / LV activity at 125.1 g/H SEPTTR 1DP (disease control rating) / LV activity at 125.1 g/H SEPTTR 3DC (disease control rating): A: > 80; B: ≤ 80; C: Not Tested; D: No Activity Observed in the Reported Assay; conditions: low volume application, 125.1 g/H; for SEPTTR 1DP disease control rating, LV activity at 125.1 g/H: 1 day protectant; for SEPTTR 3DC disease control rating, LV activity at 125.1 g/H: 3 day curative
[2] = test system: Puccinia triticina; experiment: Wheat brown rust (PUCCRT) disease control on wheat seedlings; assay type: in vivo; parameters: key to PUCCRT 3DC, HV activity at 100 ppm (% control rating) / PUCCRT disease control, 3DC / PUCCRT 1DP disease control rating, HV activity / PUCCRT 3DC disease control rating, HV activity / PUCCRT 3DC, LV activity at 125.1 g/H (% Control rating) / PUCCRT 1DP, LV activity at 125.1 g/H (% Control rating) / PUCCRT 3DC disease control rating, LV activity at 125.1 g/H / PUCCRT 1DP disease control rating, LV activity at 125.1 g/H / PUCCRT 3DC disease control rating, HV activity at 100 ppm / PUCCRT 1DP disease control rating, HV activity at 100 ppm / HV activity at 100 ppm PUCCRT 3DC (disease control rating) / LV activity at 125.1 g/H PUCCRT 1DP (disease control rating) / LV activity at 125.1 g/H PUCCRT 3DC (disease control rating): A: > 80; B: ≤ 80; C: Not Tested; D: No Activity Observed in the Reported Assay; conditions: low volume application, 125.1 g/H; for PUCCRT 1DP disease control rating, LV activity at 125.1 g/H: 1 day protectant; for PUCCRT 3DC disease control rating, LV activity at 125.1 g/H: 3 day curative

Compound	SEPTTR 1DP disease control rating, LV activity at 125.1 g/H [1]	SEPTTR 3DC disease control rating, LV activity at 125.1 g/H [1]	PUCCRT 1DP disease control rating, LV activity at 125.1 g/H [2]	PUCCRT 3DC disease control rating, LV activity at 125.1 g/H [2]
CCC(CC)C(Oc1ccc(Cl)cc1Cl)C(C)OC(=O)C(C)NC(=O)c1nccc(OC)c1OC(C)=O (stereo not shown) [Cmpd 675]	A (> 80)	A (> 80)	A (> 80)	B (≤ 80)
CCC(CC)C(Oc1cc(F)cc(Cl)c1)C(C)OC(=O)C(C)NC(=O)c1nccc(OC)c1OC(C)=O (stereo not shown) [Cmpd 677]	B (≤ 80)	B (≤ 80)	B (≤ 80)	B (≤ 80)
CC(=O)Oc1cccnc1C(=O)NC(C)C(=O)OC(C)C(Oc1ccccc1)C(C)C (stereo not shown) [Cmpd 678]	A (> 80)	B (≤ 80)	B (≤ 80)	D
CC(=O)OCOc1c(Cl)ccnc1C(=O)NC(C)C(=O)OC(C)C(Oc1ccccc1)C(C)C (stereo not shown) [Cmpd 679]	D	B (≤ 80)	B (≤ 80)	D
CCC(CC)C(Oc1cccc(F)c1)C(C)OC(=O)C(CC(C)C)NC(=O)c1nccc(OC)c1OCOC(C)=O (stereo not shown) [Cmpd 680]	B (≤ 80)	B (≤ 80)	D	B (≤ 80)
CCC(CC)C(Oc1ccc(Cl)cc1)C(C)OC(=O)C(CC(C)C)NC(=O)c1nccc(OC)c1OCOC(C)=O (stereo not shown) [Cmpd 681]	D	B (≤ 80)	D	D
CCC(CC)C(Oc1cc(F)ccc1F)C(C)OC(=O)C(CC(C)C)NC(=O)c1nccc(OC)c1OCOC(C)=O (stereo not shown) [Cmpd 682]	B (≤ 80)	B (≤ 80)	B (≤ 80)	B (≤ 80)
CCC(CC)C(Oc1cc(F)cc(Cl)c1)C(C)OC(=O)C(CC(C)C)NC(=O)c1nccc(OC)c1OCOC(C)=O (stereo not shown) [Cmpd 683]	D	B (≤ 80)	D	D
CCC(CC)C(Oc1ccc(Cl)cc1Cl)C(C)OC(=O)C(CC(C)C)NC(=O)c1nccc(OC)c1OCOC(C)=O (stereo not shown) [Cmpd 684]	D	D	B (≤ 80)	D
CCC(CC)C(Oc1cccc(F)c1)C(C)OC(=O)C(CC(C)C)NC(=O)c1nccc(OC)c1OC(C)=O (stereo not shown) [Cmpd 685]	D	B (≤ 80)	B (≤ 80)	D
CCC(CC)C(Oc1ccc(Cl)cc1)C(C)OC(=O)C(CC(C)C)NC(=O)c1nccc(OC)c1OC(C)=O (stereo not shown) [Cmpd 686]	D	B (≤ 80)	D	D
CCC(CC)C(Oc1cc(F)ccc1F)C(C)OC(=O)C(CC(C)C)NC(=O)c1nccc(OC)c1OC(C)=O (stereo not shown) [Cmpd 687]	D	B (≤ 80)	D	B (≤ 80)
CCC(CC)C(Oc1cc(F)cc(Cl)c1)C(C)OC(=O)C(CC(C)C)NC(=O)c1nccc(OC)c1OC(C)=O (stereo not shown) [Cmpd 688]	D	B (≤ 80)	D	D

Source: patent US20180000085A1, “USE OF PICOLINAMIDE COMPOUNDS WITH FUNGICIDAL ACTIVITY” (DOW AGROSCIENCES LLC, priority 2014, published 2018)
